Measured values taken from patent US8530619B2, “Identification of the hepcidin binding site on ferroportin” (University of Utah Research Foundation, priority 2007, dated 2013).
No end group written: not given here.

Tests used:
[1] = tested on: E. coli; assay: Binding of hepcidin to E. coli; conditions: low temperature hepcidin dimer; preliminary study
Experimental: The five amino terminal amino acids of hepcidin were previously shown to be critical for binding of hepcidin to Fpn (7). […] Hepcidin is amphipathic and it is hypothesized that the hydrophobic surface of hepcidin monomers are interacting at 4° C. to form a dimer. Hepcidin, like other defensins, interacts through its hydrophobic surface with bacterial membranes (11).

[2] = target: T1, I-HBD (Homo sapiens, UniProt Q9NP59); assay: Competition with 125I-labeled hepcidin on HBD-coated 96-well plate; assay type: binding; conditions: 96-well plate, 0, 50, 100, 500 ng hepcidin, room temperature, 4 hours
T1 construct: made in house; host or cells: chemical synthesis
Experimental: In accordance with the invention, HBD can be used in an assay system to determine levels of hepcidin in a test sample. Accordingly, unlabeled HBD is immobilized on a solid substrate. HBD peptides were immobilized by covalently attaching them to a 96-well plate. Immobilization was performed using Reacti-Bind Amine-binding 96-well plates (Pierce), following the manufacturer's instructions. […] The plates were incubated at room temperature overnight. The peptide solution was then removed from the wells and a protein blocking buffer, such as dry milk in phosphate buffer saline, was added to each well and allowed to sit for two hours at 37° C. The plates were then washed with warm washing buffer to remove unbound material. HBD-coated plates were used in an assay to detect hepcidin as follows: […] The plate was incubated at room temperature for 4 hours. […] (FIG. 7)

[3] = target: T2, I-HBD (hepcidin binding domain of ferroportin) (Homo sapiens, UniProt Q9NP59); assay: Competition with 125I-hepcidin for binding to I-HBD beads
T2 construct: made in house; host or cells: chemical synthesis
Experimental: FIGS. 2A-C illustrates that the binding of ^125I-hepcidin to HBD is specific and temperature dependent. In FIG. 2A peptides (HBD, scrambled-HBD or mutant (C326Y HBD) were conjugated to beads and ^125I-hepcidin was added to the bead-immobilized peptides (I-HBD) for 18 hours at 37° C. (black bars) or 4° C. (grey bars). The beads were washed and the amount of ^125I-hepcidin bound to the I-HBD was determined. In FIG. 2B a sub saturating concentration of ^125I-hepcidin (0.6 μg/ml) was incubated with I-HBD for 18 hours at 37° C. in the presence or absence of known concentrations of either hepcidin 25 (Hep 25-open circles) or hepcidin 25 synthesized with a tyrosine substitution at position M21 (Y-Hep 25) and the amount of radioactivity bound to the I-HBD determined. In FIG. 2C sub saturating levels of ^125I-hepcidin were incubated with I-HBD at different temperatures.
The binding of ^125I-hepcidin could be reduced by addition of native non-radioactive hepcidin with an apparent K of approximately 200 nM (FIG. 2B). There was no binding of ^125I-hepcidin to I-HBD at 4° C. and ^125I-hepcidin bound to I-HBD at 37° C. was released when subsequently placed at 4° C. (data not shown).
HBD peptides were immobilized by covalently attaching them to agarose beads. […] The fluid was removed and the radioactivity bound to beads was determined by gamma counting (Perkin/Elmer).

[4] = Solubility of the peptide; assay type: physicochemical; conditions: two arginines added at amino and carboxyl terminals
Experimental: Peptides were synthesized at the DNA/Peptide Core Facility, University of Utah, Salt Lake City, Utah. The peptides were synthesized with two arginines added at the amino and carboxyl terminals. […] Microscope analysis was carried out using an Olympus BX51 microscope (Olympus, Tokyo, Japan). Images were acquired using Picture Frame 2.5 software (Olympus America, East Muskogee, Okla.). All experiments were repeated a minimum of 5 times.

| Compound | binding to E. coli [1] | competition with 125I-labeled hepcidin for binding to I-HBD [2] | binding to HBD / I-HBD [3] | solubility of the peptide [4] |
| --- | --- | --- | --- | --- |
| CC[C@H](C)[C@@H]1NC(=O)[C@@H](NC(=O)[C@@H](NC(=O)[C@@H]2CCCN2C(=O)[C@H](Cc2ccccc2)NC(=O)[C@H](Cc2c[nH]cn2)NC(=O)[C@@H](NC(=O)[C@@H](N)CC(=O)O)[C@@H](C)O)[C@@H](C)CC)CSSC[C@@H](C(=O)N[C@@H](CCCCN)C(=O)N[C@H](C(=O)O)[C@@H](C)O)NC(=O)[C@@H]2CSSC[C@@H]3NC(=O)[C@@H]4CSSC[C@H](NC(=O)[C@H](Cc5ccccc5)NC1=O)C(=O)N[C@@H](CSSC[C@H](NC(=O)[C@H](CCCCN)NC(=O)[C@H](CO)NC(=O)[C@H](CCCNC(=N)N)NC(=O)[C@H](Cc1c[nH]cn1)NC3=O)C(=O)NCC(=O)N[C@@H](CCSC)C(=O)N2)C(=O)NCC(=O)N4 [hepcidin] | cannot bind to E. coli | able to compete for binding to I-HBD | does bind |  |
| RRFDCITTGYAYTQGLSGSILSRR [HBD wt] |  |  |  | increased the solubility |
